Here are results for 4 compounds from US20220251163A1 (Sinopep-Allsino Biopharmaceutical Co., Ltd., priority 2019, published 2022).

One assay concerns the target T1, mGLP-1R (Mus musculus, UniProt O35659).
T1 construct: expressed in transfected cells; host or cells: HEK293
T1 sequence (O35659 22-463): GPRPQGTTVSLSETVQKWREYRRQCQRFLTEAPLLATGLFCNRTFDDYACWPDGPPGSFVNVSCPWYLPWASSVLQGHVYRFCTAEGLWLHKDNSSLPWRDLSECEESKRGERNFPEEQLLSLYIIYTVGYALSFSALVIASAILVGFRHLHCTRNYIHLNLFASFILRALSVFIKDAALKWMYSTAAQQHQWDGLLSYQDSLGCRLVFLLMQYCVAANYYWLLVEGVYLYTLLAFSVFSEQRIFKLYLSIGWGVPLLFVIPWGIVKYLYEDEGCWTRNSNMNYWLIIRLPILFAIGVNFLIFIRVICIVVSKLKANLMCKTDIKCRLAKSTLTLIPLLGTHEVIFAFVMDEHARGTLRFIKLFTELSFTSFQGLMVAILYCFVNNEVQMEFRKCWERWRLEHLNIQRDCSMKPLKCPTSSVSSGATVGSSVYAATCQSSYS
Nature of the assay: GLP-1R agonist activity, cAMP in transfected HEK293 cells. It counts as cell-based.

The test system of a further assay is ob/ob mice. Nature of the assay: Blood glucose reducing experiment, single subcutaneous injection in ob/ob mice.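 Further: random blood glucose read at each time point, decrease rate given as percentage fall versus the model control group.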 It counts as in vivo. The settings on record: 100 μg/kg single s.c.
A short description of assay [1]: Effect on random weight of ob/ob mice after single subcutaneous injection. It counts as in vivo. The settings on record: 100 μg/kg single s.c., X ± s, n = 7.
Method: The mice in each group received random blood glucose value measurement before (0 h) administration and 2, 4, 6, 10 and 24 h after administration, and then the time for measuring the random blood glucose was adjusted and prolonged to 34, 48, 58 or 72 h after administration according to the blood glucose condition of the mice in each group. Meanwhile, the random weight of the mice in each group before (0 h) administration and 24 h after administration was weighed, and then the random weight of the mice corresponding to the random blood glucose measurement condition 48 or 72 h after administration was weighed.
For another assay, the target named is T2, mGIPR (Mus musculus, UniProt Q0P543).
T2 construct: expressed in transfected cells; host or cells: HEK293
T2 sequence (Q0P543 19-460): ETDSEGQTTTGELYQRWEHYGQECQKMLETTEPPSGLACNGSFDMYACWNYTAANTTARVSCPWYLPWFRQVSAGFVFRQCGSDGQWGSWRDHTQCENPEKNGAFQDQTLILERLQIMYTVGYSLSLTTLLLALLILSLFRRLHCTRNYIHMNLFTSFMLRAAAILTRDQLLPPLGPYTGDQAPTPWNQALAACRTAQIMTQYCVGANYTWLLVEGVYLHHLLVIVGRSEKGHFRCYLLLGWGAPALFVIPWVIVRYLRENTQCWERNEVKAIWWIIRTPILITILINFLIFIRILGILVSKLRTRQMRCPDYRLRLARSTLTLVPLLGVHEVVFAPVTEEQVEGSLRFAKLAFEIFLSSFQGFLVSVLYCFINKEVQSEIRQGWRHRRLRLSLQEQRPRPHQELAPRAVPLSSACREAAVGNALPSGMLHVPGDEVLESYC
Nature of the assay: GIPR agonist activity, cAMP in transfected HEK293 cells. It counts as cell-based.

*1 amine or outer side, *2 acyl side, *3 side chain or, on linkers, in order; H or OH if unused. Where a SMILES comes first, the peptide text is derived from it. Side-chain parts run from the residue outwards. The star is where a group is joined. C18 diacid = O=C(O)CCCCCCCCCCCCCCCCC(=O)*; γGlu = O=C(O)[C@H](CCC(=O)[*:2])N[*:1]; AEEA = NCCOCCOCC(=O)O

Method for mGIPR: HEK293 cells were co-transfected with cDNA encoding GLP-1R or GIPR. In a test for determining the compound, the cells were inoculated in a 96-well plate 2 h in advance, the polypeptide compound was dissolved with DMSO, and diluted to different multiples with a culture medium containing 0.1% bovine serum albumin and added to the co-transfected cells.

As to `CC[C@H](C)[C@H](NC(=O)[C@H](CC(C)C)NC(=O)[C@H](Cc1c[nH]c2ccccc12)NC(=O)[C@H](CCC(N)=O)NC(=O)[C@@H](NC(=O)[C@H](Cc1ccccc1)NC(=O)[C@H](C)NC(=O)[C@H](CCCCNC(=O)COCCOCCNC(=O)COCCOCCNC(=O)CC[C@H](NC(=O)CCCCCCCCCCCCCCCCC(=O)O)C(=O)O)NC(=O)[C@H](CCC(N)=O)NC(=O)[C@H](C)NC(=O)[C@@H](NC(=O)[C@H](CCCCN)NC(=O)[C@H](CC(=O)O)NC(=O)[C@H](CC(C)C)NC(=O)[C@@H](NC(=O)[C@@H](NC(=O)[C@H](CO)NC(=O)[C@H](Cc1ccc(O)cc1)NC(=O)[C@H](CC(=O)O)NC(=O)[C@H](CO)NC(=O)[C@@H](NC(=O)[C@H](Cc1ccccc1)NC(=O)[C@@H](NC(=O)CNC(=O)[C@H](CCC(=O)O)NC(=O)[C@@H](NC(=O)[C@@H](N)Cc1ccc(O)cc1)C(C)C)[C@@H](C)O)[C@@H](C)O)[C@@H](C)CC)C(C)C)[C@@H](C)CC)C(C)C)C(=O)N[C@@H](C)C(=O)NCC(=O)NCC(=O)N1CCC[C@H]1C(=O)N[C@@H](CO)C(=O)N[C@@H](CO)C(=O)NCC(=O)N[C@@H](C)C(=O)N1CCC[C@H]1C(=O)N1CCC[C@H]1C(=O)N1CCC[C@H]1C(=O)N[C@@H](CO)C(N)=O` [ID NO: 1] (H-YVEGTFTSDYSIVLDKIAQK([AEEA-AEEA-γGlu-C18 diacid])AFVQWLIAGGPSSGAPPPS-NH2), a half-maximal response on mGLP-1R (EC50) required 14.6 pM. The “Blood glucose at different time after administration, 0 h” value in the assay with ob/ob mice (0 h (before administration), X ± s, n = 7) came to 20.31 ± 0.99 mmol/L. Also, the “Decrease rate of blood glucose at different time after administration, 2 h” value in the assay on ob/ob mice (2 h) was determined as 50.2%. Also, the “Blood glucose at different time after administration, 2 h” value in the assay on ob/ob mice (2 h, X ± s, n = 7) came out at 10.12 ± 0.87 mmol/L. The “Decrease rate of blood glucose at different time after administration, 4 h” value in the assay on ob/ob mice (4 h) was determined as 51.1%. In the assay on ob/ob mice (4 h, X ± s, n = 7), the “Blood glucose at different time after administration, 4 h” value stood at 9.94 ± 0.86 mmol/L. Also, in the assay on ob/ob mice (6 h), the “Decrease rate of blood glucose at different time after administration, 6 h” value was determined as 51.6%. In addition, in the assay with ob/ob mice (6 h, X ± s, n = 7), the “Blood glucose at different time after administration, 6 h” value worked out at 9.83 ± 0.87 mmol/L. Moreover, the “Decrease rate of blood glucose at different time after administration, 10 h” value in the assay on ob/ob mice (10 h) is 47.0%. The “Blood glucose at different time after administration, 10 h” value in the assay with ob/ob mice (10 h, X ± s, n = 7) was 10.76 ± 1.12 mmol/L. Moreover, in the assay on ob/ob mice (24 h), the “Decrease rate of blood glucose at different time after administration, 24 h” value is given as 41.5%. For the same compound, the “Blood glucose at different time after administration, 24 h” value in the assay on ob/ob mice (24 h, X ± s, n = 7) is listed as 11.89 ± 2.12 mmol/L. In addition, in the assay on ob/ob mice (34 h), the “Decrease rate of blood glucose at different time after administration, 34 h” value worked out at 31.4%. Also, in the assay on ob/ob mice (34 h, X ± s, n = 7), the “Blood glucose at different time after administration, 34 h” value was determined as 13.93 ± 1.01 mmol/L. In addition, the “Decrease rate of blood glucose at different time after administration, 48 h” value with ob/ob mice (48 h) is listed as 14.7%. Further, the “AUC0-24 h Glu” value in the assay with ob/ob mice (blood glucose curve area within 24 h, X ± s, n = 7) was 269.99 ± 19.45 mmol·h/L. The “AUC0-24 h Glu Decrease rate” value in the assay on ob/ob mice (versus model control group) was 47.1%. In assay [1] (0 h), the “Changes of random body weight at different time after administration, 0 h” value was 0.0 ± 0.0 g and the “Random body weight at different time after administration, 0 h” value worked out at 43.2 ± 0.5 g. Moreover, in assay [1] (24 h), the “Changes of random body weight at different time after administration, 24 h” value is -1.1 ± 0.2 g and the “Random body weight at different time after administration, 24 h” value turned out to be 42.0 ± 0.5 g. Further, in assay [1] (48 h), the “Changes of random body weight at different time after administration, 48 h” value is -0.6 ± 0.1 g and the “Random body weight at different time after administration, 48 h” value turned out to be 42.7 ± 0.6 g.
`CC[C@H](C)[C@H](NC(=O)[C@H](CC(C)C)NC(=O)[C@H](Cc1c[nH]c2ccccc12)NC(=O)[C@H](CCC(N)=O)NC(=O)[C@@H](NC(=O)[C@H](Cc1ccccc1)NC(=O)[C@H](C)NC(=O)[C@H](CCCCNC(=O)COCCOCCNC(=O)COCCOCCNC(=O)CC[C@H](NC(=O)CCCCCCCCCCCCCCCCC(=O)O)C(=O)O)NC(=O)[C@H](CCC(N)=O)NC(=O)[C@H](C)NC(=O)[C@@H](NC(=O)[C@H](CCCCN)NC(=O)[C@H](CC(=O)O)NC(=O)[C@H](CC(C)C)NC(=O)C1(NC(=O)[C@@H](NC(=O)[C@H](CO)NC(=O)[C@H](Cc2ccc(O)cc2)NC(=O)[C@H](CC(=O)O)NC(=O)[C@H](CO)NC(=O)[C@@H](NC(=O)[C@H](Cc2ccccc2)NC(=O)[C@@H](NC(=O)CNC(=O)[C@H](CCC(=O)O)NC(=O)C2(NC(=O)[C@@H](N)Cc3ccc(O)cc3)CCC2)[C@@H](C)O)[C@@H](C)O)[C@@H](C)CC)CCC1)[C@@H](C)CC)C(C)C)C(=O)N[C@@H](C)C(=O)NCC(=O)NCC(=O)N1CCC[C@H]1C(=O)N[C@@H](CO)C(=O)N[C@@H](CO)C(=O)NCC(=O)N[C@@H](C)C(=O)N1CCC[C@H]1C(=O)N1CCC[C@H]1C(=O)N1CCC[C@H]1C(=O)N[C@@H](CO)C(N)=O` [ID NO: 2]: it took 6.13 pM to reach a half-maximal effect at mGLP-1R (EC50).
On to `CC[C@H](C)[C@H](NC(=O)[C@H](CC(C)C)NC(=O)[C@H](Cc1c[nH]c2ccccc12)NC(=O)[C@H](CCC(N)=O)NC(=O)[C@@H](NC(=O)[C@H](Cc1ccccc1)NC(=O)[C@H](C)NC(=O)[C@H](CCCCNC(=O)COCCOCCNC(=O)COCCOCCNC(=O)CC[C@H](NC(=O)CCCCCCCCCCCCCCCCC(=O)O)C(=O)O)NC(=O)[C@H](CCC(N)=O)NC(=O)[C@H](C)NC(=O)[C@@H](NC(=O)[C@H](CCCCN)NC(=O)[C@H](CC(=O)O)NC(=O)[C@H](CC(C)C)NC(=O)C1(NC(=O)[C@@H](NC(=O)[C@H](CO)NC(=O)[C@H](Cc2ccc(O)cc2)NC(=O)[C@H](CC(=O)O)NC(=O)[C@H](CO)NC(=O)[C@@H](NC(=O)[C@H](Cc2ccccc2)NC(=O)[C@@H](NC(=O)CNC(=O)[C@H](CCC(=O)O)NC(=O)C2(NC(=O)[C@@H](N)Cc3ccc(O)cc3)CCCC2)[C@@H](C)O)[C@@H](C)O)[C@@H](C)CC)CCCC1)[C@@H](C)CC)C(C)C)C(=O)N[C@@H](C)C(=O)NCC(=O)NCC(=O)N1CCC[C@H]1C(=O)N[C@@H](CO)C(=O)N[C@@H](CO)C(=O)NCC(=O)N[C@@H](C)C(=O)N1CCC[C@H]1C(=O)N1CCC[C@H]1C(=O)N1CCC[C@H]1C(=O)N[C@@H](CO)C(N)=O` [ID NO: 3], for which the EC50 (in general, the concentration giving half of the maximal effect) amounted to 3.96 pM on mGLP-1R and 1.49 pM at mGIPR.
Take `CC[C@H](C)[C@H](NC(=O)[C@H](CC(C)C)NC(=O)[C@H](Cc1c[nH]c2ccccc12)NC(=O)[C@H](CCC(N)=O)NC(=O)[C@@H](NC(=O)[C@H](Cc1ccccc1)NC(=O)[C@H](C)NC(=O)[C@H](CCCCNC(=O)COCCOCCNC(=O)COCCOCCNC(=O)CC[C@H](NC(=O)CCCCCCCCCCCCCCCCC(=O)O)C(=O)O)NC(=O)[C@H](CCC(N)=O)NC(=O)[C@H](C)NC(=O)[C@@H](NC(=O)[C@H](CCCCN)NC(=O)[C@H](CC(=O)O)NC(=O)[C@H](CC(C)C)NC(=O)C(C)(C)NC(=O)[C@@H](NC(=O)[C@H](CO)NC(=O)[C@H](Cc1ccc(O)cc1)NC(=O)[C@H](CC(=O)O)NC(=O)[C@H](CO)NC(=O)[C@@H](NC(=O)[C@H](Cc1ccccc1)NC(=O)[C@@H](NC(=O)CNC(=O)[C@H](CCC(=O)O)NC(=O)C1(NC(=O)[C@@H](N)Cc2ccc(O)cc2)CCC1)[C@@H](C)O)[C@@H](C)O)[C@@H](C)CC)[C@@H](C)CC)C(C)C)C(=O)N[C@@H](C)C(=O)NCC(=O)NCC(=O)N1CCC[C@H]1C(=O)N[C@@H](CO)C(=O)N[C@@H](CO)C(=O)NCC(=O)N[C@@H](C)C(=O)N1CCC[C@H]1C(=O)N1CCC[C@H]1C(=O)N1CCC[C@H]1C(=O)N[C@@H](CO)C(N)=O` [ID NO: 7]: the half-maximal effective concentration (EC50) was found to be 5.49 pM on mGLP-1R and 7.66 pM on mGIPR.
